For one compound, GI50 results are on record in patent US20230201168A1, “NEW THERAPY FOR THE TREATMENT OF TUMORS” (Università degli Studi di Trento, priority 2020, published 2023).

The subject of one assay is COMI cells. Kind of assay: Viability assay (Hoechst 33342/PI), COMI cells. In kind it is cell-based. Particulars: Homo sapiens, 48 h, mean±SD. As to the method:
(§1) For the evaluation of the effect of Q/D, streptogramins A analogues (alone or in combination with Q) and TMZ on GSCs viability, cells were seeded into 96-well laminin-coated microtiter plates in 150 μL of media. The plates were incubated for 24 h prior to drug treatment. Serial drug dilutions were prepared in PBS to provide a total of seven drug concentrations plus control. 10 μL of these dilutions were added to each well, and the plates were incubated for additional 48 h. Each treatment was performed in technical quadruplicate. After the drug treatments, the cells were stained with Hoechst 33342 (1 μg/mL; Thermo Fisher Scientific, cat. H1399) and Propidium Iodide (PI, 1 μg/mL; Sigma Aldrich, cat. P4170) and incubated for 20 min shaking in the dark. The plates were then read using Operetta-High Content Imaging System (Perkin Elmer) and analyzed using the Harmony Software. The number of viable cells was calculated by subtracting PI positive cells from the total number of cells estimated by Hoechst 33342 staining and normalized on the non treated control.
(§2) Dose-response curves were plotted and growth inhibition 50 (GI50) values calculated using the GraphPad Prism software.

A further assay deals with VIPI cells. Kind of assay: Viability assay (Hoechst 33342/PI), VIPI cells. In kind it is cell-based. The conditions noted are these: Homo sapiens, 48 h, mean±SD. As to the method:
as §1, §2

As a reminder, the GI50 is the concentration that inhibits growth by half. In the case of `Cn1nnc2c(C(N)=O)ncn2c1=O` [TMZ, temozolomide], the GI50 with COMI cells is 96.5 ± 15.2 µM; in the assay with VIPI cells, 338 ± 35.5 µM.
